From US10294229B2, “Heteroaryl substituted aminopyridine compounds” (BRISTOL-MYERS SQUIBB COMPANY, priority 2015, dated 2019)

How the values were obtained:
[1] = target: IRAK4 (Homo sapiens (Human), UniProt Q9NWZ3); experiment: IRAK4 Inhibition Assay; assay type: biochemical; details: ATP 500 μM; IRAK4 0.6 nM
In short: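 Enzyme 0.6 nM, ATP 500 μM, FL-peptide 1.5 μM, DMSO 1.6%; HEPES pH 7.2/MgCl2/Brij 35/DTT buffer. RT, 60 min, EDTA stop. Mobility-shift product/substrate ratio; % inhib vs no-enzyme and vehicle controls.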

[2] = Caco-2 Permeability Assay; assay type: in vitro ADME; details: human, Caco-2, test compound 3 μM
Method: Caco-2 Permeability Assay
Thirteen to 27 days prior to assay, Caco-2 cells were seeded onto collagen-coated polycarbonate filter membranes in 24-well transwell plates at a density of 1.45×10^5 cells/cm^2, approximately 4.8×10^4 cells per well. The cells were grown in a culture medium consisting of DMEM supplemented with 10% fetal bovine serum, 10 mM HEPES, 1% nonessential amino acids, 2 mM L-glutamine, 100 U/mL penicillin-G, and 100 μg/mL streptomycin. The culture medium was replaced every 3 days and the cells were maintained at 37° C. in a 95% relative humidity and 5% CO2 atmosphere. The cells were evaluated for tight junction formation just prior to assay. The test compound was solubilized to 10 mM in 100% DMSO and diluted to 3 μM in assay buffer. Permeability studies were initiated by adding 200 μL assay buffer plus/minus compound to the apical transwell compartment and 600 μL assay buffer plus/minus compound to the basolateral compartment of the 24-well transwell low-binding cluster plate. For apical-to-basolateral (A to B) permeability (absorptive direction), buffer containing compound was placed in the apical compartment (donor wells), while buffer alone was placed in the corresponding basolateral compartments (receiver wells). For basolateral-to-apical (B to A) permeability (secretive direction), buffer containing compound was placed in the basolateral compartment (donor wells), while buffer alone was placed in the corresponding apical compartments (receiver wells). Transwells were then incubated for 2 hours at 37° C. in a 95% relative humidity and 5% CO2 atmosphere with gentle agitation. Following incubation, 100 μL was removed from each apical and basolateral compartment and transferred to 96-well low binding plates that had been previously loaded with 100 μL/well of acetonitrile containing 250 nM propranolol, 250 nM diclofenac, and 500 nM tolbutamide as internal standards. The samples were subsequently analyzed by LC-MS/MS to determine concentrations of compound.

[3] = test system: Human whole blood stimulated with a TLR2 agonist (lipoteichoic acid), IL-6 levels; experiment: IRAK4 Whole Blood Assay; assay type: cell-based; details: Homo sapiens, lipoteichoic acid 10 μg/mL
In short: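 ACD-A-anticoagulated human whole blood was preincubated with compounds for 60 min at 37 °C under 5% CO2. It was then stimulated with 10 μg/mL lipoteichoic acid (final) in RPMI for 5 h. IL-6 in plasma supernatants was measured by flow cytometry bead assay.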

Sequence of IRAK4 (Q9NWZ3 whole entry, species assumed): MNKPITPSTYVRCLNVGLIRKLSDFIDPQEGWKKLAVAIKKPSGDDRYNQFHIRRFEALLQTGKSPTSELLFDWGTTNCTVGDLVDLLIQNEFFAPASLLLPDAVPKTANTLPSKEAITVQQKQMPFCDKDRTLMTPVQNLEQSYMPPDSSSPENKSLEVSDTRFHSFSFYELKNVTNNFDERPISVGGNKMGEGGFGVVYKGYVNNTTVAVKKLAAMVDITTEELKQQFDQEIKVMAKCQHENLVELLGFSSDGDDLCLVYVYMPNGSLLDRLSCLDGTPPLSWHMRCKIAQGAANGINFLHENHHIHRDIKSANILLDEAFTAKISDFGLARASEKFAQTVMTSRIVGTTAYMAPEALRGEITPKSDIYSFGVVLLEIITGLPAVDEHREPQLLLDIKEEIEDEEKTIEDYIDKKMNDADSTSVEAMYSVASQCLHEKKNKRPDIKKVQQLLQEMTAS

SMILES	IC50 [1] [nM]	Papp at 2 h, 3 µM [2] [×10⁻⁶ cm/s]	EC50 [3] [nM]
CCCc1cn(-c2cnc(-n3cnc4cc(C#N)cnc43)cc2NC(C)C)nn1 [Example 278, 3-(4-(isopropylamino)-5-(4-propyl-1H-1,2,3-triazol-1-yl)pyridin-2-yl)-3H-imidazo[4,5-b]pyridine-6-carbonitrile]	15	23.7	
CC(C)Nc1cc(-n2cnc3cc(C#N)cnc32)ncc1-c1cn(CCC(F)(F)F)nn1 [Example 42, 3-(4-(isopropylamino)-5-(1-(3,3,3-trifluoropropyl)-1H-1,2,3-triazol-4-yl)pyridin-2-yl)-3H-imidazo[4,5-b]pyridine-6-carbonitrile]	5	5.7	
CC(C)Nc1cc(-n2ncc3cc(C#N)cnc32)ncc1-c1cn(C[C@@H](C)O)nn1 [Example 66, (R)-1-(5-(1-(2-hydroxypropyl)-1H-1,2,3-triazol-4-yl)-4-(isopropylamino)pyridin-2-yl)-1H-pyrazolo[3,4-b]pyridine-5-carbonitrile]	16	5.9	
CC(C)Nc1cc(-n2ncc3cc(C#N)cnc32)ncc1-c1cn(CCCF)nn1 [Example 44, 1-(5-(1-(3-fluoropropyl)-1H-1,2,3-triazol-4-yl)-4-(isopropylamino)pyridin-2-yl)-1H-pyrazolo [3,4-b]pyridine-5-carbonitrile]	7		630
CC(C)Nc1cc(-n2ncc3cc(C#N)cnc32)ncc1-c1cn(C2CCCCC2)nn1 [Example 17, 1-(5-(1-cyclohexyl-1H-1,2,3-triazol-4-yl)-4-(isopropylamino)pyridin-2-yl)-1H-pyrazolo[3,4-b]pyridine-5-carbonitrile]	5		1970
CC(C)Nc1cc(-n2ncc3cc(C#N)cnc32)ncc1-c1cn(CC(F)F)cn1 [Example 226, 1-(5-(1-(2,2-difluoroethyl)-1H-imidazol-4-yl)-4-(isopropylamino)pyridin-2-yl)-1H-pyrazolo[3,4-b]pyridine-5-carbonitrile]	16		1480
CCCn1cc(-c2cnc(-n3cnc4cc(C#N)cnc43)cc2Nc2cnn(CC)c2)nn1 [Example 59]		20	
CC(C)Nc1cc(-n2ncc3cc(C#N)cnc32)ncc1-n1cc(CC[C@@](C)(O)CO)nn1 [Example 388, (R)-1-(5-(4-(3,4-dihydroxy-3-methylbutyl)-1H-1,2,3-triazol-1-yl)-4-(isopropylamino)pyridin-2-yl)-1H-pyrazolo[3,4-b]pyridine-5-carbonitrile]	6		260
CC(C)Nc1cc(-n2ncc3cc(C#N)cnc32)ncc1-c1cc(CCC(C)(C)O)on1 [Example 429, 1-(5-(5-(3-hydroxy-3-methylbutyl)isoxazol-3-yl)-4-(isopropylamino)pyridin-2-yl)-1H-pyrazolo[3,4-b]pyridine-5-carbonitrile]	2		450
CC(C)Nc1cc(-n2ncc3cc(C#N)cnc32)ncc1-c1cn(CCN(C)C)nn1 [Example 126, 1-(5-(1-(2-(dimethylamino)ethyl)-1H-1,2,3-triazol-4-yl)-4-(isopropylamino)pyridin-2-yl)-1H-pyrazolo[3,4-b]pyridine-5-carbonitrile]	4		390
CC(C)Nc1cc(-n2ncc3cc(C#N)c(N)nc32)ncc1-c1cn(C[C@H](C)O)nn1 [Example 70, (S)-6-amino-1-(5-(1-(2-hydroxypropyl)-1H-1,2,3-triazol-4-yl)-4-(isopropylamino)pyridin-2-yl)-1H-pyrazolo[3,4-b]pyridine-5-carbonitrile]	5		3960
CCCc1cn(-c2cnc(-n3ncc4cc(Cl)cnc43)cc2NC(C)C)nn1 [Example 282, 2-(5-chloro-1H-pyrazolo[3,4-b]pyridin-1-yl)-N-isopropyl-5-(4-propyl-1H-1,2,3-triazol-1-yl)pyridin-4-amine]	13		2260
CC(C)Nc1cc(-n2ncc3cc(C#N)cnc32)ncc1-c1cn(C[C@H](N)Cc2ccccc2)nn1 [Example 169, (R)-1-(5-(1-(2-amino-3-phenylpropyl)-1H-1,2,3-triazol-4-yl)-4-(isopropylamino)pyridin-2-yl)-1H-pyrazolo[3,4-b]pyridine-5-carbonitrile]	17		2140
CC(C)Nc1cc(-n2ncc3cc(C#N)cnc32)ncc1-c1cn(C2CN(C(=O)C(C)C)C2)nn1 [Example 144, 1-(5-(1-(1-isobutyrylazetidin-3-yl)-1H-1,2,3-triazol-4-yl)-4-(isopropylamino)pyridin-2-yl)-1H-pyrazolo[3,4-b]pyridine-5-carbonitrile]	4		490
CC(C)Nc1cc(-n2ncc3cc(C#N)cnc32)ncc1-c1cn([C@@H]2CCNC[C@@H]2O)nn1 [Example 186, 1-(5-(1-((3S,4R)-3-hydroxypiperidin-4-yl)-1H-1,2,3-triazol-4-yl)-4-(isopropylamino)pyridin-2-yl)-1H-pyrazolo[3,4-b]pyridine-5-carbonitrile]	16		1780
CC(C)Nc1cc(-n2ncc3cc(C#N)cnc32)ncc1-c1cn(CCCCCO)nn1 [Example 125, 1-(5-(1-(5-hydroxypentyl)-1H-1,2,3-triazol-4-yl)-4-(isopropylamino)pyridin-2-yl)-1H-pyrazolo[3,4-b]pyridine-5-carbonitrile]	3		1760
CC(C)Nc1cc(-n2ncc3cc(C#N)cnc32)ncc1-c1cn(C(C)C)cn1 [Example 225, 1-(5-(1-isopropyl-1H-imidazol-4-yl)-4-(isopropylamino)pyridin-2-yl)-1H-pyrazolo[3,4-b]pyridine-5-carbonitrile]	17		5590
CC(C)Nc1cc(-n2ncc3cc(C#N)cnc32)ncc1-n1cc(C2CCC(N)CC2)nn1 (centres unmarked) [Example 340, 1-(5-(4-((1s,4s)-4-aminocyclohexyl)-1H-1,2,3-triazol-1-yl)-4-(isopropylamino)pyridin-2-yl)-1H-pyrazolo[3,4-b]pyridine-5-carbonitrile]	4		810
COC(=O)N1CC(n2cc(-c3cnc(-n4ncc5cc(C#N)cnc54)cc3NC(C)C)nn2)C1 [Example 142, methyl 3-(4-(6-(5-cyano-1H-pyrazolo[3,4-b]pyridin-1-yl)-4-(isopropylamino)pyridin-3-yl)-1H-1,2,3-triazol-1-yl)azetidine-1-carboxylate]	5		560
CC(C)Nc1cc(-n2ncc3cc(C#N)cnc32)ncc1-n1cc(C2CCN(C(=O)OC(C)(C)C)CC2)nn1 [Example 333, tert-butyl 4-(1-(6-(5-cyano-1H-pyrazolo[3,4-b]pyridin-1-yl)-4-(isopropylamino)pyridin-3-yl)-1H-1,2,3-triazol-4-yl)piperidine-1-carboxylate]	14		4700
CC(C)Nc1cc(-n2ncc3cc(C#N)cnc32)ncc1-c1cn(C2CN(c3ncccn3)C2)nn1 [Example 147, 1-(4-(isopropylamino)-5-(1-(1-(pyrimidin-2-yl)azetidin-3-yl)-1H-1,2,3-triazol-4-yl)pyridin-2-yl)-1H-pyrazolo[3,4-b]pyridine-5-carbonitrile]	5		1060
